Assay results as given in ChEMBL document CHEMBL1201862, “PubChem BioAssay data set” (2004).
Calls of active or inactive are those of the source.

Columns and labels:
Insulin-degrading enzyme = target: T1, Insulin-degrading enzyme (Homo sapiens, UniProt P14735); experiment: Dose Response: Fluorescence polarization-based cell-based high throughput dose response assay for inhibitors of insulin-degrading enzyme (IDE). [Related pubchem assays: 434962 (Primary screen (IDE inhibitors in singlicate)), 449730 (Counterscreen (Cytotoxicity in triplicate)), 435028 (Confirmation (IDE inhibitors in triplicate)), 434984 (Summary …; format: functional
T1 sequence (P14735 whole entry): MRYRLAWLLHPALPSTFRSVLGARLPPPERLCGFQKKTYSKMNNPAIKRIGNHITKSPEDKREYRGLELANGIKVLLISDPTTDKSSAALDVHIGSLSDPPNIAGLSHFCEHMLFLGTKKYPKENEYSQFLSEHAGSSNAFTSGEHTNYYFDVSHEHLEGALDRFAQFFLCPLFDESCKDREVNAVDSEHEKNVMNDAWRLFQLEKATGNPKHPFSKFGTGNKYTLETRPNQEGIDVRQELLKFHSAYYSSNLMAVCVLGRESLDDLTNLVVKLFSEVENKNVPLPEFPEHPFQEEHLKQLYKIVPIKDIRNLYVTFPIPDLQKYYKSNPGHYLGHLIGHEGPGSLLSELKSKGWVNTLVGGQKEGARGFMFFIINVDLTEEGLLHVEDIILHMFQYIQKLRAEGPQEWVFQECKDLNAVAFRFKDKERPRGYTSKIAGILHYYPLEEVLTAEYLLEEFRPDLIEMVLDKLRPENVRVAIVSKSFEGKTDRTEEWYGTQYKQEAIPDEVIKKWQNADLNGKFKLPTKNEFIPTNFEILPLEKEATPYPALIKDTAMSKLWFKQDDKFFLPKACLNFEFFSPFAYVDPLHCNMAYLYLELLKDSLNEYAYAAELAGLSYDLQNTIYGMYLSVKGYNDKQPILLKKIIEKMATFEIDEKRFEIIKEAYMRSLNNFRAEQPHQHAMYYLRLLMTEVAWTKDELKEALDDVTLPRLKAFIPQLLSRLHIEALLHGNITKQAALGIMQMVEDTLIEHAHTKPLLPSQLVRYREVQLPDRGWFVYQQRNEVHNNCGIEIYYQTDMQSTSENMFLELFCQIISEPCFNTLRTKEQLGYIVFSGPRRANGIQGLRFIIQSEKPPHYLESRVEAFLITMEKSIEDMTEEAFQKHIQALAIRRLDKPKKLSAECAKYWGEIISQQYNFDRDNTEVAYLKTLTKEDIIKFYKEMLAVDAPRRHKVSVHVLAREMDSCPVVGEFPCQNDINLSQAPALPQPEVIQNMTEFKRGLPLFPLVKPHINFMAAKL

[1] = Counterscreen for IDE inhibitors: Luminescence-based cell-based high throughput dose response assay to identify compounds that are cytotoxic to HEK cells. [Related pubchem assays: 434962 (Primary screen (IDE inhibitors in singlicate)), 449730 (Counterscreen (Cytotoxicity in triplicate)), 435028 (Confirmation (IDE inhibitors in triplicate)) …; format: functional; conditions: HEK293
[2] = target: G-protein coupled receptor 55 (Homo sapiens, UniProt Q9Y2T6); experiment: GPR55 antagonists blocking LPI-driven arrestin recruitment, primary screen, imaging, U2OS, beta-arrestin-GFP, LPI agonist (AID 2013); format: functional;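 further: antagonist potency measured as reduced agonist-driven arrestin aggregation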
Bcl-2-related protein A1 = target: T2, Bcl-2-related protein A1 (Mus musculus, UniProt Q07440); format: functional;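 further: confirmatory dose–response counterscreen on Bfl-1, used to check hits from a UBC13 polyubiquitin inhibitor campaign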
T2 sequence (Q07440 whole entry): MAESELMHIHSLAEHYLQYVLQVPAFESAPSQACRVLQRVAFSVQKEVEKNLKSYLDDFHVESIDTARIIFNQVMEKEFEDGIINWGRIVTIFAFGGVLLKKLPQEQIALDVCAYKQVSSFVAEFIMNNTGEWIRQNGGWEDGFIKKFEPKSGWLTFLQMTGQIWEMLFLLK

[3] = target: T3, Ubiquitin-conjugating enzyme E2 N (Homo sapiens, UniProt P61088); format: functional
T3 sequence (P61088 whole entry): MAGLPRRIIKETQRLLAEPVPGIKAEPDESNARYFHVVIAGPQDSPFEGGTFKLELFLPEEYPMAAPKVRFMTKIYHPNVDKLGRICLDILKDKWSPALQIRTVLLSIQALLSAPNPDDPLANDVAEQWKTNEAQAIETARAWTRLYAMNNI

[4] = target: T3, Ubiquitin-conjugating enzyme E2 N; format: functional; remark: listed apart in the source
[5] = target: T4, Voltage-gated N-type calcium channel alpha-1B subunit/Amyloid beta A4 precursor protein-binding family A member 1 (Homo sapiens, UniProt Q00975+Q02410); experiment: disruptors of Mint-PDZ/N-type channel peptide interaction – biochemical, HTRF, SAR follow-up (AID 2489); format: functional
[6] = target: T4, Voltage-gated N-type calcium channel alpha-1B subunit/Amyloid beta A4 precursor protein-binding family A member 1; experiment: disruptors of Mint-PDZ/N-type channel peptide interaction – biochemical, HTRF, set 2, SAR follow-up (AID 434980); format: functional
Troponin, cardiac muscle = Troponin, cardiac muscle (Homo sapiens, UniProt P19429+P45379+P63316); experiment: Fluorescence-based biochemical high throughput dose response assay for activators of the calcium sensitivity of cardiac Regulated Thin Filaments (RTF). [Related pubchem assays (depositor defined):AID493008, AID493018, AID504382, AID504383]; format: protein-complex assay
SUMO-activating enzyme [7] = target: T5, SUMO-activating enzyme (Homo sapiens, UniProt Q9UBT2); experiment: SUMOylation inhibitor hit validation, confirmation, SUMOylation inhibitor project, biochemical, AlphaScreen (AID 2018); format: functional
SUMO-activating enzyme [8] = target: T5, SUMO-activating enzyme; experiment: inhibitors of in vitro SUMOylation cascade, primary screen, biochemical, HTRF, uHTS (AID 2006); format: protein-complex assay
[9] = HIV-1 Env-mediated cell fusion inhibitors, dose response, CCR5-tropic Env (AID 2279); format: functional

T4 sequence (Q00975 whole entry): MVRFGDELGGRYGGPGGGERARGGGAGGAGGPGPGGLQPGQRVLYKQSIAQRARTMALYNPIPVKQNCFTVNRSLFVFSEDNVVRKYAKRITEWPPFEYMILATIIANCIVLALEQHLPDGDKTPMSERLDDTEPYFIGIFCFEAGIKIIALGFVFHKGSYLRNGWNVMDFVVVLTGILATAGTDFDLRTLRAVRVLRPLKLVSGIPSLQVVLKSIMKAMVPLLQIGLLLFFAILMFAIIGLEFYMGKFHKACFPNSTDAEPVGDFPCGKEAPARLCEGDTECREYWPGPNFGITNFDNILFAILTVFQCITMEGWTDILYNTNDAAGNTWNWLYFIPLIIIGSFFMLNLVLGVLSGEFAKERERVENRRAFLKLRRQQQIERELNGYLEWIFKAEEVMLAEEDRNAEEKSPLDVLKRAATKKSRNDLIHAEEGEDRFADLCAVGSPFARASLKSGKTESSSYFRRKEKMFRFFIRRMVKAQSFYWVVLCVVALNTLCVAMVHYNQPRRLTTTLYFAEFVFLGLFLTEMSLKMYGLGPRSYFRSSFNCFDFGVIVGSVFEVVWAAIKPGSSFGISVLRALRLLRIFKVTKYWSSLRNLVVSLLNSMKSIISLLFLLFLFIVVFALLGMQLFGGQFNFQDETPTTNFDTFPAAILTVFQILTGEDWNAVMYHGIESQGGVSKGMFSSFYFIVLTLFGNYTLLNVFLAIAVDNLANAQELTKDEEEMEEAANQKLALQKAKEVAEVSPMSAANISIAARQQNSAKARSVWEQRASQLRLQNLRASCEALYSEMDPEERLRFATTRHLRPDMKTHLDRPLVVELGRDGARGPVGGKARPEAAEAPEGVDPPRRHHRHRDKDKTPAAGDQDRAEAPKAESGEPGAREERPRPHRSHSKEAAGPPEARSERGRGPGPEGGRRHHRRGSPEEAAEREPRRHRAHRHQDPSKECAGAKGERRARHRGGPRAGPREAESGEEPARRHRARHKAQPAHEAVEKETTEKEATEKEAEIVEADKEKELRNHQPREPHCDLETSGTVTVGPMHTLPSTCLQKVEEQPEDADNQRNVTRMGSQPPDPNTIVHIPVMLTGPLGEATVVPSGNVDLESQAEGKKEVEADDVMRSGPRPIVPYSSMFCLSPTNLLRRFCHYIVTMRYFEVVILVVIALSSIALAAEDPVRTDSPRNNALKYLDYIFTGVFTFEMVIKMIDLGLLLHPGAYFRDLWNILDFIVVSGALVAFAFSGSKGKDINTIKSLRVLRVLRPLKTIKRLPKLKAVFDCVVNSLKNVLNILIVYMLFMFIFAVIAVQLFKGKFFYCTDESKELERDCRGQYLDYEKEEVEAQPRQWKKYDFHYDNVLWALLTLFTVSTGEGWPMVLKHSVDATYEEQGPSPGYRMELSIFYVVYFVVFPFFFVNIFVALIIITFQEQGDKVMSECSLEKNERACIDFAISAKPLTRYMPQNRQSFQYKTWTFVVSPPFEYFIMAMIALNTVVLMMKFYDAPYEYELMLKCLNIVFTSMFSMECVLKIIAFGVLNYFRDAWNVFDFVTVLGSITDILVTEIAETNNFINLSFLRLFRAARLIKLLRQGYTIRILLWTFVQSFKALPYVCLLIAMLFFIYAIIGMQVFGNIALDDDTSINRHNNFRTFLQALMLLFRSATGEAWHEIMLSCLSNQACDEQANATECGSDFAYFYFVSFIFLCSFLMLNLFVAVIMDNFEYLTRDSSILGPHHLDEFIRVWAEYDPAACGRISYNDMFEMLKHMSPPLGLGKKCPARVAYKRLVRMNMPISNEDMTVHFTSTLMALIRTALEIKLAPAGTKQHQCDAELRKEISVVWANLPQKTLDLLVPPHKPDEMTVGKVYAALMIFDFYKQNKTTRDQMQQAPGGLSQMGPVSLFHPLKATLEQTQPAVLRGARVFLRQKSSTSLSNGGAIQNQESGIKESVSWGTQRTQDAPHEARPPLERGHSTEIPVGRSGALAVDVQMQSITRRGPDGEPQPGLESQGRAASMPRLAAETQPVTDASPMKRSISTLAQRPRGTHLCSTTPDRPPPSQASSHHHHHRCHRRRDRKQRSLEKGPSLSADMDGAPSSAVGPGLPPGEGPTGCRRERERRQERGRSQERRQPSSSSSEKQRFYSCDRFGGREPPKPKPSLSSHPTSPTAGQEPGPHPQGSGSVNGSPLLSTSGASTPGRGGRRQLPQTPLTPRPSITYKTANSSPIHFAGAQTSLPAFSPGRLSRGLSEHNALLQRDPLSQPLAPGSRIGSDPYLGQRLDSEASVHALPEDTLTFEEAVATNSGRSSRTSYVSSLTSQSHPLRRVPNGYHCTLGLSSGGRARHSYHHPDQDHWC
T4 sequence (Q02410 whole entry): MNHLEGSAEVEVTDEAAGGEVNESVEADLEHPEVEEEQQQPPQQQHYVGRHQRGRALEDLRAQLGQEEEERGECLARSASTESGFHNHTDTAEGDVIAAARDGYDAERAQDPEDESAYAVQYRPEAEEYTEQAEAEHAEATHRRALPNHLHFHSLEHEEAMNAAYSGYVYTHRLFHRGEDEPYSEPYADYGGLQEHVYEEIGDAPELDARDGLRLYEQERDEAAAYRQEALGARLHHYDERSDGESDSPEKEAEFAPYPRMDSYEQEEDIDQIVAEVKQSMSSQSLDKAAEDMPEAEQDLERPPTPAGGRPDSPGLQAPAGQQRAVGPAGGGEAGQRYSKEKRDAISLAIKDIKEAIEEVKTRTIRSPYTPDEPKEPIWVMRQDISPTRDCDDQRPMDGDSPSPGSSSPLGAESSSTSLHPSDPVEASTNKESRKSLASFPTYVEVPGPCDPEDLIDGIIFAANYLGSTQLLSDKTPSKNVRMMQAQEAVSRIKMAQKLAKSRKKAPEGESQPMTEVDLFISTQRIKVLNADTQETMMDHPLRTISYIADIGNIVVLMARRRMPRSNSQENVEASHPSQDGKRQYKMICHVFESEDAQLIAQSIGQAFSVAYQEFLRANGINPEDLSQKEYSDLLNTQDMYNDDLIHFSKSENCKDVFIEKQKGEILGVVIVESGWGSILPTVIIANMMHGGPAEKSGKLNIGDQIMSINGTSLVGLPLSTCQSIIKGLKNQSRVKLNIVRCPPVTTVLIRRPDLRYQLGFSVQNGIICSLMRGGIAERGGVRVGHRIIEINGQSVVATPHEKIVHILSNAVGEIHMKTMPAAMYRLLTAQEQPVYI
T5 sequence (Q9UBE0 whole entry): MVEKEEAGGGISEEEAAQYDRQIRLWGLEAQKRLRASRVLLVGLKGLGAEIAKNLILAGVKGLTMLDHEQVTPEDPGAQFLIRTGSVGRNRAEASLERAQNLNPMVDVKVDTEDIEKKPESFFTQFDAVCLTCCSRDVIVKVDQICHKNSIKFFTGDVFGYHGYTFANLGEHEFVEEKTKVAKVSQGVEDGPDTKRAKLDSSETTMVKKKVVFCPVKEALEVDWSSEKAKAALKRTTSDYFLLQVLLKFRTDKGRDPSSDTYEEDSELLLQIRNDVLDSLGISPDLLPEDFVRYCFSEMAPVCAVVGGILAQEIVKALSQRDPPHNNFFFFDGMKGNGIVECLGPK
T5 sequence (Q9UBT2 whole entry): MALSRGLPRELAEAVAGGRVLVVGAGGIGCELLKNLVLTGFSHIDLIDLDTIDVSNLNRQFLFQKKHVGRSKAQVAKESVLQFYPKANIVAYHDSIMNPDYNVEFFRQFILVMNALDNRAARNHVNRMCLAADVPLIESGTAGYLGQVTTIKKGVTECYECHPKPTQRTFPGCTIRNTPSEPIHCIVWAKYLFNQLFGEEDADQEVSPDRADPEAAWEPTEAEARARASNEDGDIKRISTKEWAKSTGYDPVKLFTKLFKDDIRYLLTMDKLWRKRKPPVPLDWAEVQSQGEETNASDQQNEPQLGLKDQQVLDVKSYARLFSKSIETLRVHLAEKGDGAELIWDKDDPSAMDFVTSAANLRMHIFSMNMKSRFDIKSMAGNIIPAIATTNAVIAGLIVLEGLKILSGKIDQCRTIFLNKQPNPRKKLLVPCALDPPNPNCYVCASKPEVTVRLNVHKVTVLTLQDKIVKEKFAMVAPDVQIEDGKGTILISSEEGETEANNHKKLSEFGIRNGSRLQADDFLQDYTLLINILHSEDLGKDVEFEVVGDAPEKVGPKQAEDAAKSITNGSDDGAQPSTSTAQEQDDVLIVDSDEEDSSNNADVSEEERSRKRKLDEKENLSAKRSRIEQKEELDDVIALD
G-protein coupled receptor 55, sequence (Q9Y2T6 whole entry): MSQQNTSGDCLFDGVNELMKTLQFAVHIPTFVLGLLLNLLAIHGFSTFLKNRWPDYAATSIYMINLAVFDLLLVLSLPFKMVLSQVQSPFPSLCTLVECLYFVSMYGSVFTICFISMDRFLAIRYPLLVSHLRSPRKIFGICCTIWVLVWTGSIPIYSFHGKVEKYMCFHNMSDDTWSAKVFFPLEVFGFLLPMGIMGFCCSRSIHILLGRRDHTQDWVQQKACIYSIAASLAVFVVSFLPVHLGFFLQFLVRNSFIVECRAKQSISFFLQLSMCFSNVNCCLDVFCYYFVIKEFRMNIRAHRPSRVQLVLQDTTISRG

In the case of `COc1ccccc1N1CCN(C(=O)c2cc(N3C(=O)C4C5CCC(C5)C4C3=O)ccc2Cl)CC1` (stereo not given), the IC50 (Insulin-degrading enzyme) is reported as > 55.9 µM (not active) and the IC50 [1] is reported as 27.8 µM (not active).
With `O=C(/C=C/c1ccco1)NC(=S)Nc1ccccc1N1CCOCC1` the IC50 [2] was 4.57 µM (active).
With `O=C(CCNC(=O)c1ccccc1Cl)Nc1nc2ccccc2s1` the IC50 (Bcl-2-related protein A1) was > 20 µM (inactive), the IC50 [3] was 6.15 µM (active) and the IC50 [4] was 8.02 µM (active).
With `Cc1ccc(Nc2cnn(C34CC5CC(CC(CC(=O)O)(C5)C3)C4)c(=O)c2Cl)cc1C` the IC50 (Insulin-degrading enzyme) was 18.8 µM (not active) and the IC50 [1] was > 55.7 µM (not active).
In the case of `CC(=O)Oc1ccc(N2C(=O)C3C4C=CC(CC4)C3C2=O)cc1` (stereo not given), the IC50 [5] is reported as > 56.8 µM (inactive) and the IC50 [6] is reported as > 56.8 µM (inactive).
In the case of `CCn1cc(C(=O)NCCC(=O)NCCO)c(=O)c2cc3c(cc21)OCO3`, the EC50 (Troponin, cardiac muscle) is reported as > 71.4 µM (inactive).
For `CCOC(=O)C1=C(C)N=c2s/c(=C\c3ccc(OCC(=O)O)cc3)c(=O)n2C1c1ccc(OC(C)C)cc1` (stereo not given), the IC50 (SUMO-activating enzyme [7]) was 10.1 µM (active), the IC50 (SUMO-activating enzyme [8]) was 26 µM (active) and the IC50 [9] was 35.2 µM (active).
For `CCN(CC)c1ccc(/C=c2\sc3nnc(-c4ccccc4Cl)n3c2=O)cc1`, the EC50 (Troponin, cardiac muscle) was 0.191 µM (active).
